Reference: PubChem BioAssay AID256 (DTP/NCI, 2004)
Inconclusive results and toxic doses are left out. The calls were made as follows: active = survival T/C of 150% or more; inactive = T/C below 125% in these data.

System: CD2F1 mice, L1210 leukemia ip, survival T/C
Test: NCI In Vivo Anticancer Drug Screen. Data for tumor model L1210 Leukemia (intraperitoneal) in CD2F1 (CDF1) mice
Details: endpoint: mean survival time, higher = longer survival
Method in brief: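 Tumor-bearing mice (transplanted tumor) were split into treated and vehicle control groups, and the measured endpoint of each treated group was divided by that of its vehicle controls.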

[1] = dose: 50.0 mg/kg/injection, schedule: Q04DX003 (ip), vehicle: saline with Tween-80
[2] = dose: 100.0 mg/kg/injection, schedule: Q04DX003 (ip), vehicle: saline with Tween-80
[3] = dose: 200.0 mg/kg/injection, schedule: Q04DX003 (ip), vehicle: saline with Tween-80
[4] = dose: 100.0 mg/kg/injection, schedule: Q01DX001 (ip), vehicle: saline with Tween-80
[5] = dose: 200.0 mg/kg/injection, schedule: Q01DX001 (ip), vehicle: saline with Tween-80
[6] = dose: 400.0 mg/kg/injection, schedule: Q01DX001 (ip), vehicle: saline with Tween-80
[7] = dose: 12.5 mg/kg/injection, schedule: Q01DX009 (ip), vehicle: saline with Tween-80
[8] = dose: 25.0 mg/kg/injection, schedule: Q01DX009 (ip), vehicle: saline with Tween-80
[9] = dose: 50.0 mg/kg/injection, schedule: Q01DX009 (ip), vehicle: saline with Tween-80
[10] = dose: 100.0 mg/kg/injection, schedule: Q01DX009 (ip), vehicle: saline with Tween-80
[11] = dose: 100.0 mg/kg/injection, schedule: Q01DX001 (ip), vehicle: saline
[12] = dose: 200.0 mg/kg/injection, schedule: Q01DX001 (ip), vehicle: saline
[13] = dose: 400.0 mg/kg/injection, schedule: Q01DX001 (ip), vehicle: saline
[14] = dose: 200.0 mg/kg/injection, schedule: Q01DX009 (ip), vehicle: saline with Tween-80
[15] = dose: 400.0 mg/kg/injection, schedule: Q01DX009 (ip), vehicle: saline with Tween-80
[16] = dose: 400.0 mg/kg/injection, schedule: Q04DX003 (ip), vehicle: saline with Tween-80

Measured: T/C

C/C=C(\C)c1cc(=O)c2c(C)cc3c(c2o1)C(OC)(OC(C)=O)c1c(O)c(C2CC(C)(N(C)C)C(OC(C)=O)C(C)O2)cc(C2CC(N(C)C)C(OC(C)=O)C(C)O2)c1C3=O (centres undefined)
inactive: [1] 112 % of control | [2] 110 % of control | dose: 100.0 mg/kg/injection, schedule: Q04DX003 (ip), vehicle: saline 109 % of control | [3] 97 % of control | dose: 200.0 mg/kg/injection, schedule: Q04DX003 (ip), vehicle: saline 91 % of control

O=C(CBr)N1c2ccccc2Sc2ccc(C(F)(F)F)cc21
inactive: dose: 1.56 mg/kg/injection, schedule: Q01DX009 (ip), vehicle: other 100 % of control | dose: 3.13 mg/kg/injection, schedule: Q01DX009 (ip), vehicle: other 97 % of control | dose: 6.25 mg/kg/injection, schedule: Q01DX009 (ip), vehicle: other 102 % of control | dose: 12.5 mg/kg/injection, schedule: Q01DX009 (ip), vehicle: other 96 % of control | dose: 25.0 mg/kg/injection, schedule: Q01DX009 (ip), vehicle: other 102 % of control

CCOC(=O)C(CC1OCCO1)C1=NC(C)(C)CC(C)O1 (centres undefined)
inactive: dose: 100.0 mg/kg/injection, schedule: Q01DX001 (ip), vehicle: acetone 93 % of control | dose: 200.0 mg/kg/injection, schedule: Q01DX001 (ip), vehicle: acetone 94 % of control

O=C1CCC(Cl)S(=O)(=O)c2ccccc21 (centres undefined)
inactive: [4] 97 % of control | [5] 105 % of control | [6] 94 % of control

CC(=O)Nc1ncc([N+](=O)[O-])s1
inactive: [1] 100 % of control | [2] 105 % of control | [3] 100 % of control

Cc1ccc(C(=O)NCCCOc2ccc(N3C(N)=NC(N)=NC3(C)C)cc2Cl)cc1S(=O)(=O)F
inactive: [7] 106 % of control | [8] 103 % of control | [9] 103 % of control | [10] 106 % of control

CC(C)(C)S(=O)O
inactive: [11] 101 % of control | [12] 94 % of control | [13] 100 % of control

[Cl][Pt+2][Cl].[NH-]c1ccccc1[NH-]
inactive: dose: 1.25 mg/kg/injection, schedule: Q01DX009 (ip), vehicle: saline with Tween-80 120 % of control | dose: 10.0 mg/kg/injection, schedule: Q01DX009 (ip), vehicle: saline with Tween-80 100 % of control

N#CCC(=O)O
inactive: dose: 37.5 mg/kg/injection, schedule: Q04DX003 (ip), vehicle: saline 100 % of control | dose: 75.0 mg/kg/injection, schedule: Q04DX003 (ip), vehicle: saline 100 % of control

CC(=O)O/N=C(\C(c1ccccc1)c1ccccc1)C1c2ccccc2-c2ccccc21
inactive: [4] 87 % of control | [5] 87 % of control | [6] 90 % of control

C1CCC(C2CCCC[N-]2)[N-]C1.C1CCC(C2CCCC[N-]2)[N-]C1.[Cl][Ru][Cl] (centres undefined)
inactive: dose: 3.13 mg/kg/injection, schedule: Q04DX003 (ip), vehicle: distilled water + Tween-80 93 % of control | dose: 6.25 mg/kg/injection, schedule: Q04DX003 (ip), vehicle: distilled water + Tween-80 88 % of control | dose: 12.5 mg/kg/injection, schedule: Q04DX003 (ip), vehicle: distilled water + Tween-80 92 % of control | dose: 25.0 mg/kg/injection, schedule: Q04DX003 (ip), vehicle: distilled water + Tween-80 88 % of control | dose: 50.0 mg/kg/injection, schedule: Q04DX003 (ip), vehicle: distilled water + Tween-80 97 % of control

COc1cccc(CCNc2ccncc2N)c1
inactive: dose: 75.0 mg/kg/injection, schedule: Q01DX001 (ip), vehicle: saline 96 % of control

O=C1N(c2ccccc2)CCS1(=O)=O
inactive: dose: 9.5 mg/kg/injection, schedule: Q01DX001 (ip), vehicle: other 101 % of control | dose: 19.0 mg/kg/injection, schedule: Q01DX001 (ip), vehicle: other 100 % of control | dose: 38.0 mg/kg/injection, schedule: Q01DX001 (ip), vehicle: other 106 % of control

O=C1CCCC1(c1ccccc1)c1ccccc1
inactive: [10] 101 % of control | [2] 91 % of control | [14] 101 % of control | [3] 91 % of control | [15] 95 % of control | [16] 94 % of control

CCC1=CC(C)(C)CC(C)=C1 (tested in a mixture with another compound)
inactive: [9] 110 % of control | [10] 100 % of control | [2] 96 % of control | [3] 96 % of control | [16] 93 % of control

C1CC[N-]CC1.C1CC[N-]CC1.C1CC[N-]CC1.[Cl][Rh]([Cl])[Cl]
inactive: [7] 99 % of control | [8] 99 % of control

COC(=O)Cc1nc2ccccc2[nH]c1=O
inactive: [9] 103 % of control | [10] 92 % of control | [14] 100 % of control

CCN(CC)C(=S)SCc1c(Cl)c(Cl)c(Cl)c(Cl)c1Cl
inactive: dose: 100.0 mg/kg/injection, schedule: Q04DX002 (ip), vehicle: saline with Tween-80 94 % of control | dose: 200.0 mg/kg/injection, schedule: Q04DX002 (ip), vehicle: saline with Tween-80 91 % of control | dose: 400.0 mg/kg/injection, schedule: Q04DX002 (ip), vehicle: saline with Tween-80 97 % of control

CCOC(=O)CC1c2nc3ccccc3cc2CN1C(=O)CCOC(C)=O (centres undefined)
inactive: [10] 95 % of control | [2] 104 % of control | [14] 92 % of control | [3] 100 % of control | [15] 97 % of control | [16] 97 % of control

Cc1ccc(OP(=O)(c2ccccc2)c2ccccc2)cc1
inactive: [2] 98 % of control | [3] 100 % of control | [16] 100 % of control

Cn1c(=O)cc(C=Nc2ccc(O)cc2)c2ccccc21
inactive: [10] 94 % of control | [14] 90 % of control | [15] 97 % of control

FC(F)(F)C(F)(F)CI
inactive: [4] 105 % of control | [5] 98 % of control | [6] 94 % of control

CC(C)C1OCC(C)(C)C(c2ccccc2)O1 (centres undefined)
inactive: dose: 50.0 mg/kg/injection, schedule: Q04DX002 (ip), vehicle: saline 93 % of control | dose: 100.0 mg/kg/injection, schedule: Q04DX002 (ip), vehicle: saline 96 % of control | dose: 200.0 mg/kg/injection, schedule: Q04DX002 (ip), vehicle: saline 110 % of control

CCCCCCCCCCCCC(=O)N1CCOCC1
inactive: [10] 105 % of control | [14] 94 % of control | [15] 103 % of control

O=C(O)CC1=C(c2ccc3ccccc3c2)CCC1=O
inactive: [11] 98 % of control | [12] 98 % of control | [13] 98 % of control

Cc1ccc(CCF)cc1
inactive: [4] 107 % of control | [5] 109 % of control

[Cl][Pt+2][Cl].[NH-]c1cccc(C(F)(F)F)c1.[NH-]c1cccc(C(F)(F)F)c1
inactive: dose: 12.5 mg/kg/injection, schedule: Q04DX003 (ip), vehicle: saline with Tween-80 95 % of control | dose: 25.0 mg/kg/injection, schedule: Q04DX003 (ip), vehicle: saline with Tween-80 100 % of control | [1] 103 % of control
